In test [1] the test system is constitutive active colorectal cancer cell (CRC) Wnt pathway, HCT116 TOPFlash. Put plainly: Cellular reporter assay, HCT116 Super TopFlash (constitutive active Wnt pathway), luciferase expression. It is filed as cell-based. Conditions: Homo sapiens, HCT-116, 36 h, HCT116 Super TopFlash reporter cells, 36 hours incubation, dilution series 50 μM to 15 nM. The protocol: In order to discover and characterize small molecules which inhibit the constitutive active colorectal cancer cell (CRC) Wnt pathway, a cellular reporter assay was employed. The corresponding assay cell was generated by transfection of the colorectal cancer cell line HCT116 (ATCC, #CCL-247) with the Super TopFlash vector (Morin, Science 275, 1997, 1787-1790; Molenaar et al., Cell 86 (3), 1996, 391-399). The HCT116 cell line is cultivated at 37° C. and 5% CO2 in DMEM/F-12 (Life Technologies, #11320-074), supplemented with 2 mM glutamine, 20 mM HEPES, 1.4 mM pyruvate, 0.15% Na-bicarbonate and 10% foetal bovine serum (GIBCO, #10270), this cancer cell line is pathophysiological relevant since it carries a deletion of position S45 in the β-catenin gene, leading to constitutive active Wnt signaling. Stable transfectants were generated by cotransfection with pcDNA3 and selection of stable transfected cells with 1 mg/ml G418.
(§1) In preparation of the assay, the two cell lines were plated 24 hours before at 10000 cells per well of a 384 micro titre plate (MTP) in 30 μL growth medium. Selective inhibitory activity for small molecules on the mutated Wnt pathway was determined after parallel incubation of both (TOP and FOP) HCT116 reporter cell lines with a compound dilution series from 50 μM to 15 nM in steps of 3.16-fold dilutions in CAFTY buffer (130 mM NaCl, 5 mM KCl, 20 mM HEPES, 1 mM MgCl2, 5 mM NaHCO3, pH 7.4) containing 2 mM Ca^2+ and 0.01% BSA. The compounds were thereby serially prediluted in 100% DMSO and thereafter in addition 50 fold into the CAFTY compound dilution buffer (described above). From this dilution 10 μL were added to the cells in 30 μL growth medium and incubated for 36 hours at 37° C. and 5% CO2. Thereafter luciferase assay buffer (1:1 mixture of luciferase substrate buffer (20 mM Tricine, 2.67 mM MgSO4, 0.1 mM EDTA, 4 mM DTT, 270 μM Coenzyme A, 470 μM Luciferin, 530 μM ATP, ph adjusted to pH 7.8 with a sufficient volume of 5M NaOH) and Triton buffer (30 mL Triton X-100, 115 mL glycerol, 308 mg Dithiothreitol, 4.45 g Na2HPO4.2H2O, 3.03 g TRIS HCl, ad 1 l H20, pH 7.8) was added as equal volume to the compound solution on the cells to determine luciferase expression as a measure of Wnt signaling activity in a luminometer.
In general terms: In a reporter assay the amount or activity of a reporter protein is the signal.

The subject of another test is HCT116 FOPFlash. Put plainly: Control reporter assay, HCT116 FOP control vector (non-functional TCF elements), luciferase expression. It is filed as cell-based. Conditions: Homo sapiens, HCT-116, 36 h, HCT116 FOP control reporter cells, 36 hours incubation, dilution series 50 μM to 15 nM. The protocol:
In a parallel approach, HCT116 cells were cotransfected with the FOP control vector and pcDNA3. The FOP vector is identical to the TOP construct, but it contains instead of functional TCF elements a randomized, non-functional sequence. For this transfection a stable transfected cell line was generated as well.
as §1

SMILES strings stand for the structures. Where a name gives a salt, the structure may show the parent alone. Where only a bound is given, the exact number is not on record here.

What is called IC50 is the concentration needed to halve the response being measured. The low end stands for greater potency in that assay, the high end for weaker potency in that assay. With `O=C(CN1CCOCC1)Nc1cc(C(=O)Nc2ccc(-c3cncnc3)cn2)ccc1OC(F)(F)F` [Example 1, 3-[(morpholin-4-ylacetyl)amino]-N-[5-(pyrimidin-5-yl)pyridin-2-yl]-4-(trifluoromethoxy)benzamide], the concentration for half-maximal inhibition (IC50) in test [1] is 0.145 µM; in the test on HCT116 FOPFlash, at least 50 µM.

Take `O=C(Nc1nnc(-c2cccnc2)s1)c1ccc(OC(F)(F)F)c(NC(=O)C2(N3CCOCC3)CC2)c1` [Example 2, 3-({[1-(morpholin-4-yl)cyclopropyl]carbonyl}amino)-N-[5-(pyridin-3-yl)-1,3,4-thiadiazol-2-yl]-4-(trifluoromethoxy)benzamide]: the values for the IC50 (in test [1]; with HCT116 FOPFlash) were 0.282 µM and at least 50 µM, respectively.

Consider `CC(C(=O)Nc1cc(C(=O)Nc2ccc(-c3ccc(N)nc3)nc2)ccc1OC(F)(F)F)N1CCOCC1` (stereo not drawn) [Example 3, N-(6′-amino-2,3′-bipyridin-5-yl)-3-{[2-(morpholin-4-yl)propanoyl]amino}-4-(trifluoromethoxy)benzamide], for which the results for the half-maximal inhibitory concentration (IC50) (in test [1]; in the test with HCT116 FOPFlash) were 0.0209 µM and at least 50 µM, respectively.

For the molecule `CC(C(=O)Nc1cc(C(=O)Nc2ccc(-c3cncnc3)nc2)ccc1OC(F)(F)F)N1CCOCC1` (stereo not drawn) [Example 4, 3-{[2-(morpholin-4-yl)propanoyl]amino}-N-[6-(pyrimidin-5-yl)pyridin-3-yl]-4-(trifluoromethoxy)benzamide], the IC50 is 0.0195 µM in test [1] and at least 50 µM with HCT116 FOPFlash.

With `CC(C(=O)Nc1cc(C(=O)Nc2ccc(-c3cccnc3F)nc2)ccc1OC(F)(F)F)N1CCOCC1` (stereo not drawn) [Example 5, N-(2′-fluoro-2,3′-bipyridin-5-yl)-3-{[2-(morpholin-4-yl)propanoyl]amino}-4-(trifluoromethoxy)benzamide], the IC50 in test [1] was 0.0165 µM; in the test with HCT116 FOPFlash, at least 50 µM.

As for `CC(C(=O)Nc1cc(C(=O)Nc2ccc(-c3cnc(N)nc3)nc2)ccc1OC(F)(F)F)N1CCOCC1` (stereo not drawn) [Example 6], the results for the concentration for half-maximal inhibition (IC50) (in test [1]; in the test on HCT116 FOPFlash) were 0.019 µM and at least 50 µM, respectively.

Consider `COc1ncc(-c2ccc(NC(=O)c3ccc(OC(F)(F)F)c(NC(=O)C(C)N4CCOCC4)c3)cn2)cn1` (stereo not drawn) [Example 7, N-[6-(2-methoxypyrimidin-5-yl)pyridin-3-yl]-3-{[2-(morpholin-4-yl)propanoyl]amino}-4-(trifluoromethoxy)benzamide], for which the IC50 in test [1] is 0.115 µM; in the test with HCT116 FOPFlash it was at least 50 µM.

Consider `CC(C(=O)Nc1cc(C(=O)Nc2ccc(-c3cccnc3)nc2)ccc1OC(F)(F)F)N1CCOCC1` (stereo not drawn) [Example 8, N-(2,3′-bipyridin-5-yl)-3-{[2-(morpholin-4-yl)propanoyl]amino}-4-(trifluoromethoxy)benzamide], for which the 50% inhibitory concentration (IC50) in test [1] is 0.0116 µM; with HCT116 FOPFlash, at least 50 µM.

For `CN1CCN(CC(=O)Nc2cc(C(=O)Nc3nnc(-c4ccccn4)s3)ccc2OC(F)(F)F)CC1` [Example 9, 3-{[(4-methylpiperazin-1-yl)acetyl]amino}-N-[5-(pyridin-2-yl)-1,3,4-thiadiazol-2-yl]-4-(trifluoromethoxy)benzamide hydrochloride], the results for the half-inhibitory concentration (IC50) (in test [1]; with HCT116 FOPFlash) were 0.514 µM and 22.5 µM, respectively.

Consider `CN1CCN(CC(=O)Nc2cc(C(=O)Nc3ccc(-c4ccc(N)nc4)cn3)ccc2OC(F)(F)F)CC1` [Example 10, N-(6′-amino-3,3′-bipyridin-6-yl)-3-{[(4-methylpiperazin-1-yl)acetyl]amino}-4-(trifluoromethoxy)benzamide], for which the half-maximal inhibitory concentration (IC50) was 0.058 µM in test [1] and at least 50 µM in the test with HCT116 FOPFlash.

On to `CN1CCN(CC(=O)Nc2cc(C(=O)Nc3ccc(-c4cccnc4)cn3)ccc2OC(F)(F)F)CC1` [Example 11, N-(3,3′-bipyridin-6-yl)-3-{[(4-methylpiperazin-1-yl)acetyl]amino}-4-(trifluoromethoxy)benzamide], for which the half-maximal inhibitory concentration (IC50) in test [1] is 0.0188 µM; in the test with HCT116 FOPFlash, at least 50 µM.

In the case of `CN1CCN(CC(=O)Nc2cc(C(=O)Nc3ccc(-c4cnc(N)nc4)cn3)ccc2OC(F)(F)F)CC1` [Example 12, N-[5-(2-aminopyrimidin-5-yl)pyridin-2-yl]-3-{[(4-methylpiperazin-1-yl)acetyl]amino}-4-(trifluoromethoxy)benzamide], the values for the half-maximal inhibitory concentration (IC50) (in test [1]; in the test on HCT116 FOPFlash) were 0.132 µM and at least 50 µM, respectively.
